Experimental data: patent US11819569B2, “Treating inflammation with inhaled aspirin” (VECTURA INC., priority 2013, dated 2023)
Like-named read-outs stand apart in the source and are kept apart here.

What was measured:
[1] = cited from earlier work
[2] = Pharmacokinetic studies after oral administration of ASA (cited Dressman et al.); details: extrapolated from linear pharmacokinetics, dose not stated
[3] = oral solution of 650 mg, four male subjects; cited from earlier work
[4] = cited from earlier work; remark: listed apart in the source
[5] = cited from earlier work; remark: listed apart in the source
[6] = metabolite after oral administration of ASA
[7] = after oral administration of ASA

Question: Which results are given for `O=C(O)c1ccccc1O` [salicylate, salicylic acid]?
Answer: elimination half-life [1, 6]: 2 to 3 h; period over which plasma levels increase following administration of ASA [1, 6]: about 45 minutes; expected peak circulating plasma level [2]: ~10 µg/mL

Question: Which elimination half-life [1, 7] does the source give for `CC(=O)Oc1ccccc1C(=O)O` [aspirin, acetylsalicylic acid] here?
Answer: 0.25 to 0.333 h

Question: What about the “time to peak plasma levels” value [1, 7] of the same compound?
Answer: about 20 minutes

Question: And the “pharmacokinetic behavior over dosage range” value ([1]; dosage range from 30-400 mg)?
Answer: linear

Question: And the “share of the dose that reached the peripheral circulation intact (AUC oral vs intravenous)” value [3]?
Answer: 68%

Question: What about the “loss or inactivation of the oral dosage due to the first pass effect in the gut and liver” value ([4]; oral administration) of the same compound?
Answer: approximately ⅔

Question: What about the “fraction of the oral dose that is bioavailable” value ([4]; taken orally, first pass effect) of the same compound?
Answer: about one to two-thirds

Question: What about the vascular events prevented ([5]; Dutch TIA Study, any dose above 30 mg daily, oral) of the same compound?
Answer: 13%

Question: And the “increase of major gastrointestinal and extracranial bleeds” value ([5]; oral aspirin, studies used dosages of 325 mg)?
Answer: over 50%
